Measurements: patent US20260068884A1, “COMPOSITION USED FOR KILLING FUNGI AND METHOD FOR APPLYING COMPOSITION” (JIANGSU FLAG CHEMICAL INDUSTRY CO., LTD., priority 2022, published 2026)
In brackets after ≈: the same amount, converted by molar mass. Read-outs that look alike come from different tables or passages of the source.

Columns and labels:
[1] = system: wheat rust (Puccinia striiformis f. sp. tritici); experiment: pot culture method, protective control of wheat rust; type: in vivo; settings: for Measured Toxicity Index of Mixture (ATI): standard fungicide = component A; for EC50: Puccinia striiformis
[2] = system: Blumeria graminis; experiment: pot culture method, protective control of wheat powdery mildew; type: in vivo; settings: for Measured Toxicity Index of Mixture (ATI): standard fungicide = component A; for EC50: Blumeria graminis, control efficacy, potted wheat, sprayed 24 h before inoculation, 7 days after inoculation
[3] = system: wheat scab germ (Fusarium graminearum); experiment: microbe, parasite or virus in culture; type: cell-based; settings: for Measured Toxicity Index of Mixture (ATI): standard fungicide = component A
[4] = system: cucumber powdery mildew; experiment: field efficacy test for cucumber powdery mildew; type: in vivo; settings: spray
Method: Field efficacy test for preventing and treating cucumber powdery mildew.
The test object is cucumber powdery mildew. The test is carried out on Xiaoying village of Liuhe district of Nanjing city, Jiangsu Province, China, the field trend of the test is flat, the soil is loam, the fertility is medium, the pH value is 6.8, and the management of rich water during the test is medium. And setting blank contrast, repeating the treatment for 3 times, wherein each cell has 30 square meters and is arranged in random block groups. The water consumption per acre is 40 L by adopting a conventional spraying method, and the water is uniformly sprayed on the front and back surfaces of the leaves.
The investigation and statistical method comprises the steps of investigating the base of illness state before application of the medicament, and investigating once again 10-14 days after the last application of the medicament, wherein 2 times of investigation are total. Four points are randomly taken from each cell, 2 plants are investigated from each point, all leaves are investigated from each plant, and each leaf is graded and recorded according to the percentage of lesion spots to the leaf area. The grading method comprises the following steps: • stage 0: no lesion spots; • stage 1: the lesion area accounts for less than 5% of the whole leaf area; • stage 3: the ratio of the lesion spot area to the whole leaf area is more than 6% to less than 10%; • stage 5: the ratio of the lesion spot area to the whole leaf area is more than 11% to less than 25%; • stage 7: the ratio of the lesion spot area to the whole leaf area is more than 26% to less than 50%; • stage 9: the ratio of the lesion spot area to the whole leaf area is more than 50%;
When the fungicidal activity of the active compound combination exceeds the sum of the activities of the active compounds when applied individually, then there is always a synergistic effect of the fungicides. The expected activity of a given combination of two active compounds can be calculated (according to the Colby formula) as follows (refer to S. R. Colby, “Calculation of the synergistic andantagonistic responses of herbicide combinations”, Weeds 1967, 15, pages 20-22):
[formula] • X is the efficacy of component A when applied at an application rate of m g a.i./ha, • Y is the efficacy of component B when applied at an application rate of n g a.i./ha, • Cexp is the expected efficacy when the active compound A is administered at an application rate of m g a.i./ha and the active compound B is administered at an application rate of n g a.i./ha, respectively, • the degree of efficacy is expressed as %: 0% means the efficacy corresponding to the control group, while 100% efficacy means no disease observed. • C-Cobs/Cexp, C>1 indicates synergy and antagonism if C<1.

[5] = system: rape sclerotinia sclerotiorum; experiment: plate method, inhibition of hypha growth (in-vessel bioassay); type: cell-based; settings: for EC50: Sclerotinia sclerotiorum
[6] = single component B, g a.i./ha: azoxystrobin 72, fludioxonil 50, pyraclostrobin 160, difenoconazole 100
[7] = hypha growth inhibition, plate method, wheat fusarium graminearum

Row | Molecule | Measured Toxicity Index of Mixture (ATI) [1] | Measured Toxicity Index of Mixture (ATI) [2] | EC50 [1] [µg/mL] | EC50 [2] [µg/mL] | EC50 ([3]; Fusarium graminearum) [µg/mL] | Measured Toxicity Index of Mixture (ATI) [3] | EC50 [5] [µg/mL] | other results
1 | fluazolidinamide | 116.00 | 80.00 | – | – | – | – | – | –
2 | COC(=O)N(OC)c1ccccc1COc1ccn(-c2ccc(Cl)cc2)n1 [pyraclostrobin] | 241.67 | 133.33 | 12 (≈ 30.9 µM) | 12 (≈ 30.9 µM) | 2 (≈ 5.16 µM) | 0.50 | – | Cobs Actual control Effect [4, 6]: 72.87%
3 | N#Cc1c[nH]cc1-c1cccc2c1OC(F)(F)O2 [fludioxonil] | – | – | – | – | – | – | 0.015 (≈ 0.0604 µM) | Measured Toxicity Index of Mixture (ATI) [5]: 66.67; Cobs Actual control Effect [4, 6]: 47.70%
4 | OC(Cc1ccccc1Cl)(Cn1nc[nH]c1=S)C1(Cl)CC1 (stereo not drawn) [prothioconazole] | 322.22 | 114.29 | 9 (≈ 26.1 µM) | 14 (≈ 40.7 µM) | 4 (≈ 11.6 µM) | 0.25 | – | –
5 | CC(C1CC1)C(O)(Cn1cncn1)c1ccc(Cl)cc1 (stereo not drawn) [ciproconazole] | 233.08 | 94.12 | – | – | – | 0.50 | – | EC50 [3, 7]: 2 µg/mL (≈ 6.85 µM)
6 | OCC1=C[C@H](N[C@H]2C[C@H](CO)[C@@H](O[C@@H]3O[C@H](CO)[C@@H](O)[C@H](O)[C@H]3O)[C@H](O)[C@H]2O)[C@H](O)[C@@H](O)[C@@H]1O [validamycin] | – | – | – | – | 13 (≈ 26.1 µM) | 0.08 | – | –
7 | CCOC(=O)C(C#N)=C(N)c1ccccc1 [phenamacril] | – | – | – | – | – | 2.50 | – | EC50 [3, 7]: 0.4 µg/mL (≈ 1.85 µM)
8 | CC1(C)CCC(Cc2ccc(Cl)cc2)C1(O)Cn1cncn1 (stereo not drawn) [metconazole] | – | – | – | – | 0.03 (≈ 0.0938 µM) | 33.33 | – | –
9 | CCCC1COC(Cn2cncn2)(c2ccc(Cl)cc2Cl)O1 (stereo not drawn) [propiconazole] | 193.33 | 145.45 | 15 (≈ 43.8 µM) | 11 (≈ 32.1 µM) | – | – | – | –
10 | CC(C)(C)C(O)(CCc1ccc(Cl)cc1)Cn1cncn1 (stereo not drawn) [tebuconazole] | 181.25 | 123.08 | 16 (≈ 52 µM) | 13 (≈ 42.2 µM) | 0.06 (≈ 0.195 µM) | 16.67 | 0.1 (≈ 0.325 µM) | Measured Toxicity Index of Mixture (ATI) [5]: 10.00
11 | C=C(CN(C(=O)c1c(C(F)F)nn(C)c1F)C1CC1)c1ccc(Cl)cc1Cl [component A] | 100.00 | 100.00 | 29 (≈ 69.3 µM) | 16 (≈ 38.3 µM) | 0.01 (≈ 0.0239 µM) | 100.00 | 0.01 (≈ 0.0239 µM) | Measured Toxicity Index of Mixture (ATI) ([5]; standard fungicide = component A): 100; Cobs Actual control Effect ([4]; 40 g a.i./ha): 37.60%; Cobs Actual control Effect ([4]; 60 g a.i./ha): 46.88%; Cobs Actual control Effect ([4]; 104 g a.i./ha): 54.68%; Cobs Actual control Effect ([4]; 150 g a.i./ha): 67.74%
12 | CO/C=C(/C(=O)OC)c1ccccc1Oc1cc(Oc2ccccc2C#N)ncn1 [azoxystrobin] | – | – | – | – | – | – | – | Cobs Actual control Effect [4, 6]: 50.28%
13 | CC1COC(Cn2cncn2)(c2ccc(Oc3ccc(Cl)cc3)cc2Cl)O1 (stereo not drawn) [difenoconazole] | – | – | – | – | – | – | – | Cobs Actual control Effect [4, 6]: 67.85%
14 | CCCN(CCOc1c(Cl)cc(Cl)cc1Cl)C(=O)n1ccnc1 [prochloraz] | – | – | – | – | 0.02 (≈ 0.0531 µM) | 50.00 | 0.08 (≈ 0.212 µM) | Measured Toxicity Index of Mixture (ATI) [5]: 12.5
15 | N#Cc1c(Cl)c(Cl)c(Cl)c(C#N)c1Cl [chlorothalonil] | – | – | – | – | – | – | 0.82 (≈ 3.08 µM) | Measured Toxicity Index of Mixture (ATI) [5]: 1.22
